Where a chain is given by its changes, count along the chain named.

What is called IC50 is the concentration that inhibits the measured activity by half. High values mean lower potency, low ones higher potency. For orientation: Ki means the dissociation constant of the complex between target and ligand, obtained from inhibition or displacement. What is called Hill coefficient is a measure of the steepness of the concentration-response curve.

Common to all, as to format: biochemical
The target of one experiment is T1, pig kidney FBPase L73A (Sus scrofa, UniProt P00636, L74A).
T1 construct: His6 (C); made in house; host or cells: Escherichia coli BL21 (DE3)
T1 sequence (P00636 1-338 L74A): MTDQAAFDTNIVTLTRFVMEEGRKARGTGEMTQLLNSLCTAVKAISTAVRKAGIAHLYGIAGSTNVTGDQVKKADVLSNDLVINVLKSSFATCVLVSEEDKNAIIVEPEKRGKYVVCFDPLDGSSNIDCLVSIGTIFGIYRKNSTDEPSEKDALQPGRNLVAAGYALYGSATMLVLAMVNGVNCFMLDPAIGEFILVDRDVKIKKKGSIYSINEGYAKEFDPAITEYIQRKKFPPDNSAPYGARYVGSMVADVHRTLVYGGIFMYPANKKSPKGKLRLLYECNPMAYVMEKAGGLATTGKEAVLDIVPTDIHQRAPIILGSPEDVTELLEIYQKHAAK
The experiment in a line: Malachite Green kinetic assay, L73A mutant. The settings on record: enzyme L73A; for IC50: FBP substrate 10 to 50 µM. The method, then: (§1) For the kinetic assay, a standard curve was obtained from an ammonium molybdate Malachite Green inorganic phosphate assay (OD660 nm). The purified FBPase protein was dialyzed ×3 in 50 mM Tris buffer at pH 7.5 at 4°C. For enzyme concentration, absorbency values were recorded for all five mutant proteins using spectrophotometer readings at OD280 nm. To quantitate enzyme concentration, the enzymes were calculated based on the quantity of micrograms per microliter (µg/µl) present. Final concentration of WT and mutant enzymes was between 2.5 and 5.0 µg/µl. Using a colorimetric assay as described below, specific activity (SA) was determined. At last, all kinetic and binding assays described below were performed in 50 mM Tris pH 7.5.
(§2) Kinetic assays were performed for WT and mutant enzymes to identify functional differences between the WT enzyme and the mutants. […] Readings recorded at OD660 nm for each enzyme were applied to the standard curve equation. Micromoles of inorganic phosphate were calculated to determine the SA of mutant enzymes.
(§3) For each clone, the kinetic assay was performed in duplicates of triplicates. Malachite Geen was used to detect inorganic phosphate. Two separate clones were processed independently of the same mutant. All kinetic data were fit to symmetric sigmoidal curve using Origin software based on methods previously described [[27–29]]. More specifically, for kinetic parameters established via curve fitting (shown in Tables 1–3; and in Figure 5A,B), the equation y = d + (a − d)/1 + (x/c)^b was used where ‘x’ is represented by apparent Michelis constant (Km) when y = Vmax. […] P-values were significant at <0.001 and represent a comparison with the WT enzyme.

A further experiment has as its target T2, pig kidney FBPase L56A (Sus scrofa, UniProt P00636, L57A).
T2 construct: His6 (C); made in house; host or cells: Escherichia coli BL21 (DE3)
T2 sequence (P00636 1-338 L57A): T1 sequence (P00636 1-338 L74A) with L57A, A74L
The experiment in a line: Malachite Green kinetic assay, L56A mutant. The settings on record: enzyme L56A; for IC50: FBP substrate 10 to 50 µM. The method, then:
as §1, §2, §3

In another experiment the target is T3, pig kidney FBPase WT (Sus scrofa, UniProt P00636).
T3 construct: His6 (C); made in house; host or cells: Escherichia coli BL21 (DE3)
T3 sequence (P00636 1-338): T1 sequence (P00636 1-338 L74A) with A74L
The experiment in a line: Malachite Green kinetic assay, WT enzyme. The settings on record: for IC50: FBP substrate 10 to 50 µM. The method, then:
as §1, §2, §3

The target of a further experiment is T4, pig kidney FBPase K112A (Sus scrofa, UniProt P00636, K113A).
T4 construct: His6 (C); made in house; host or cells: Escherichia coli BL21 (DE3)
T4 sequence (P00636 1-338 K113A): T1 sequence (P00636 1-338 L74A) with A74L, K113A
The experiment in a line: Malachite Green kinetic assay, K112A mutant. The settings on record: for IC50: FBP substrate 10 to 50 µM. The method, then:
as §1, §2, §3

Another experiment addresses T5, pig kidney FBPase Y113A (Sus scrofa, UniProt P00636, Y114A).
T5 construct: His6 (C); made in house; host or cells: Escherichia coli BL21 (DE3)
T5 sequence (P00636 1-338 Y114A): T1 sequence (P00636 1-338 L74A) with A74L, Y114A
The experiment in a line: Malachite Green kinetic assay, Y113A mutant. The settings on record: for IC50: FBP substrate 10 to 50 µM. The method, then: as §1, §2, §3

[1] abbreviates: association (binding) constant from saturation curve.

Consider `Nc1ncnc2c1ncn2[C@@H]1O[C@H](COP(=O)(O)O)[C@@H](O)[C@H]1O` [AMP], for which the “AMP Hill coefficient” value at pig kidney FBPase L73A is given as 2.1 (± 0.2); at pig kidney FBPase L56A it was 2.3 (± 0.2); on pig kidney FBPase WT, 2.2 (± 0.1). Further, the IC50 is 6950 nM against pig kidney FBPase L73A; 7350 nM at pig kidney FBPase L56A; 7500 nM against pig kidney FBPase WT; 68500 nM against pig kidney FBPase K112A (enzyme K112A_1); 52300 nM at pig kidney FBPase K112A (enzyme K112A_2); 48600 nM at pig kidney FBPase Y113A (enzyme Y113A_1). At pig kidney FBPase Y113A (enzyme Y113A_2), inhibition was half-maximal at 55300 nM (IC50).
Consider `O=P(O)(O)OC[C@H]1O[C@@](CO)(OP(=O)(O)O)[C@@H](O)[C@@H]1O` [F2,6-BP, fructose-2,6-bisphosphate], for which the Ki on pig kidney FBPase L73A worked out at 1350 nM; on pig kidney FBPase L56A, 1250 nM; on pig kidney FBPase WT, 250 nM; at pig kidney FBPase K112A (enzyme K112A) it was 240 nM; at pig kidney FBPase Y113A (enzyme Y113A), 250 nM. For the same compound, the IC50 came out at 7250 nM at pig kidney FBPase L73A; 7500 nM against pig kidney FBPase L56A; 1500 nM against pig kidney FBPase WT; 1500 nM at pig kidney FBPase K112A (enzyme K112A_1); 1500 nM against pig kidney FBPase K112A (enzyme K112A_2); 1800 nM on pig kidney FBPase Y113A (enzyme Y113A_1). Besides, at pig kidney FBPase Y113A (enzyme Y113A_2), it took 1700 nM to reach half-maximal inhibition (IC50).
For `[Mg+2]` [Mg^2+, magnesium], the Ka at pig kidney FBPase L73A (setting [1]) is on record as 0.48 (± 0.17) mM; on pig kidney FBPase L56A (setting [1]) it was 0.52(± 0.13) mM; on pig kidney FBPase WT (setting [1]), 0.50 (± 0.18) mM; at pig kidney FBPase K112A (enzyme K112A, association (binding) constant from saturation curve), 0.51 (± 0.15) mM; on pig kidney FBPase Y113A (enzyme Y113A, association (binding) constant from saturation curve), 0.48 (± 0.16) mM. In addition, the Hill coefficient is 2.95 (± 0.17) at pig kidney FBPase L73A (for magnesium); 2.75 (± 0.16) on pig kidney FBPase L56A (for magnesium); 2.10 (± 0.15) on pig kidney FBPase WT (for magnesium); 1.98 (± 0.15) at pig kidney FBPase K112A (enzyme K112A, for magnesium); 2.00 (± 0.19) at pig kidney FBPase Y113A (enzyme Y113A, for magnesium).

These data come from PMC6386767, “Characterization of recombinant fructose-1,6-bisphosphatase gene mutations: evidence of inhibition/activation of FBPase protein by gene mutation” (Bioscience Reports, 2019).
